In US20090081197A1 (Palatin Technologies, Inc., priority 2007, published 2009):
Where two headings read alike, the source gives them in different places. Positions of bridges follow the written chain, without caps; N, C: chain ends. Non-standard residues stand in square brackets, D forms with d. Residues, ends and D or L forms follow the SMILES beside them. No end group written: not given here. 2Nal = N[C@@H](Cc1ccc2ccccc2c1)C(=O)O; d2Nal = N[C@H](Cc1ccc2ccccc2c1)C(=O)O; Nle = CCCC[C@H](N)C(=O)O

How the values were obtained:
[1] = molecular target: T1, MC1-R (Mus musculus, UniProt Q01727); assay: Competitive inhibition assay using [I^125]-NDP-α-MSH, B-16 mouse melanoma cell membranes; assay type: binding; conditions: for inhibition at 1 µM: 1 μM test compound, read-out: Inhibition at 1 μM (NDP-α-MSH) In Normal System, MC1-R
T1 construct: B-16 mouse melanoma cells (containing MC1-R); endogenous in cells
How it was run: (§1)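 Tracer was 0.4 nM for MC3-R and MC5-R, 0.2 nM for MC4-R and 0.1 nM for MC1-R. Bound radioactivity was gamma-counted after filtration; values are triplicate means, with results below 0% reported as 0%.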

[2] = molecular target: T1, MC1-R; assay: cAMP functional activity assay in B-16 mouse melanoma cells; assay type: cell-based; conditions: 1 μM concentration where stated
[3] = IP (and IN) food intake, mice; assay type: in vivo; conditions: mouse, IP, 4 hours
How it was run: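 Male Sprague-Dawley rats dosed IV (0.5-3, up to 10 mg/kg) or IP (0.5-10, up to 50 mg/kg); male C57BL/6 mice dosed IP. Change in food intake and body weight over 24 h post-dose versus 1-week vehicle baseline, with 48 and 72 h reversal checks.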

[4] = molecular target: T2, MC3-R (Homo sapiens, UniProt P41968); assay: Competitive inhibition assay using [I^125]-NDP-α-MSH, hMC3-R membranes; assay type: binding; design: expressed in transfected cells; conditions: 1 μM test compound; read-out: Inhibition at 1 μM (NDP-α-MSH) In Normal System, MC3-R
How it was run: as §1

[5] = molecular target: T3, MC5-R (Homo sapiens, UniProt P33032); assay: Competitive inhibition assay using [I^125]-NDP-α-MSH, hMC5-R membranes; assay type: binding; design: expressed in transfected cells; conditions: 1 μM test compound; read-out: Inhibition at 1 μM (NDP-α-MSH) In Normal System, MC5-R
How it was run: as §1

[6] = molecular target: T4, MC4-R (Homo sapiens, UniProt P32245); assay: cAMP functional activity assay in HEK-293 cells, normal system; assay type: cell-based; design: expressed in transfected cells; host or cells: HEK-293
[7] = molecular target: T3, MC5-R; assay: cAMP functional activity assay in HEK-293 cells; assay type: cell-based; design: expressed in transfected cells; host or cells: HEK-293; conditions: 1 μM concentration where stated
[8] = molecular target: T4, MC4-R; assay: Assay for neutral antagonist, Schild analysis (pA2) against NDP-α-MSH; assay type: cell-based; design: expressed in transfected cells; host or cells: HEK-293; conditions: Schild analysis vs NDP-α-MSH; read-out: pA2 value as antagonist at MC4-R in a normal system (converted)
Method: Assay for Neutral Antagonist. […] These studies were carried out in HEK-293 cells expressing the MC4-R receptor. Cells were incubated with the compounds in the presence of the agonist NDP-α-MSH and the extent of antagonism was measured by the decrease in the level of intracellular cAMP. Screening the compounds for antagonists was done at a single concentration of NDP-α-MSH (1.0 nM) over a compound concentration range of 0.5-5000 nM.
Experimental details were similar to the analysis for agonistic activity described above. Briefly, cells were pre-incubated for 30 minutes with the test compounds at concentrations between 0.5 nM and 5000 nM. The cells were then stimulated with NDP-α-MSH at a concentration of 1 nM for 1 hour. For Schild analysis, the interactions were studied using at least 3 concentrations of the compounds, separated by a log unit, over a full range of the agonist (0.005-5000 nM). cAMP levels was measured in the cell lysates after appropriate dilution. Nonlinear regression analysis with Prism Graph-Pad software was used for Schild analysis and to obtain EC50 values. pA2 values were derived from the Schild plot of the data.

[9] = molecular target: T4, MC4-R; assay: Competitive inhibition assay using [I^125]-NDP-α-MSH, hMC4-R membranes; assay type: binding; design: host or cells: TREx-293 (HEK-293 stably expressing Tet repressor); conditions: 1 μM test compound; read-out: Inhibition at 1 μM (NDP-α-MSH) In Normal System, MC4-R
How it was run: as §1

[10] = molecular target: T4, MC4-R; assay: cAMP agonist stimulation, low receptor density system (0.1 ng/mL doxycycline); conditions: 0.1 ng/mL doxycycline, low receptor density hMC4-R system; NDP-α-MSH maximal cAMP = 1.0
[11] = molecular target: T4, MC4-R; assay: cAMP agonist stimulation, high receptor density system (10 ng/mL doxycycline); conditions: for Efficacy/Intrinsic Activity: 10 ng/mL doxycycline, high receptor density hMC4-R system, NDP-α-MSH maximal cAMP = 1.0
[12] = IV and IP food intake and body weight change, rats; assay type: in vivo; conditions: rat, 10 mg/kg, 24 hours
Method: IV and IP food intake and body weight change. Change in food intake and body weight was evaluated for selected compounds. Male Sprague-Dawley rats or male C57BL/6 mice were utilized. Animals were individually housed in conventional plexiglass hanging cages and maintained on a controlled 12 hour on/off light cycle. Water and powdered (LabDiet, 5P00 Prolab RMH 3000) or pelleted (Harlan Teklad 2018 18% Protein Rodent Diet) food was provided ad libitum. For 1 week before treatment, 24-hour food intake and body weight change was recorded to assess a baseline for the group during vehicle treatment. The rats were dosed IV with vehicle or selected compounds (0.5-3 mg/kg, and in some cases up to 10 mg/Kg) or dosed intraperitoneally (IP) with vehicle or selected compounds (0.5-10 mg/kg, and in some cases up to 50 mg/kg). Mice were dosed IP. The changes in body weight and food intake for the 24 hour period after dosing were determined. The changes in body weight and food intake for the 48 hour and 72 hour periods after dosing were also measured to determined reversal of changes in body weight and food intake effects back to baseline levels.

[13] = molecular target: T2, MC3-R; assay: cAMP functional activity assay in HEK-293 cells; assay type: cell-based; design: expressed in transfected cells; host or cells: HEK-293; conditions: 1 μM concentration where stated
[14] = molecular target: T5, human MC1-R (Homo sapiens, UniProt Q01726); assay: Competitive inhibition assay using [I^125]-NDP-α-MSH, human MC1-R (separate experiments); assay type: binding; conditions: separate experiments with human MC1-R; read-out: Ki (nM) (NDP-α-MSH) in a normal system, human MC1-R
T5 construct: expressed in transfected cells

[15] = Penile erection induction in male rats; assay type: in vivo; conditions: rat, ICV
How it was run: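 Male Sprague-Dawley rats (200-250 g), groups of 4-8, dosed IV or ICV at various doses and observed individually for penile erections. Only statistically relevant increases over vehicle-control mean PEs count as induction; IV responses below 1.0 PEs/rat treated as equivocal, some retested ICV.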

[16] = ICV food intake and body weight change; assay type: in vivo; conditions: rat, 1 nmol
How it was run: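 Rats fitted with intracerebroventricular cannulas and fed ad libitum got a single ICV dose of vehicle or compound (1-3 nmol). Food intake and body-weight change over the 24 h after dosing were compared with a 1-week vehicle baseline. Values at 48 h and 72 h were also recorded to follow return to baseline.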

[17] = functional antagonists known not to cause PE response, cited from earlier work
[18] = normal system, 1 μM concentration where stated

T3 sequence (P33032 whole entry): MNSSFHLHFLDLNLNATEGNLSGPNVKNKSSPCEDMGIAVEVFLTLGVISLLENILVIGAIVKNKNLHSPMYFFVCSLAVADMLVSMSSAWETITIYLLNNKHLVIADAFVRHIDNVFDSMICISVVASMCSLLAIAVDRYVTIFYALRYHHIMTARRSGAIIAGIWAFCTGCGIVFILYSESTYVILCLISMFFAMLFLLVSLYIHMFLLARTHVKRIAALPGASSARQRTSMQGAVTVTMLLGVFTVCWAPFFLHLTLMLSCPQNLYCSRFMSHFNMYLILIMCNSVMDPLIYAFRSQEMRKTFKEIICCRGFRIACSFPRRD
T4 sequence (P32245 whole entry): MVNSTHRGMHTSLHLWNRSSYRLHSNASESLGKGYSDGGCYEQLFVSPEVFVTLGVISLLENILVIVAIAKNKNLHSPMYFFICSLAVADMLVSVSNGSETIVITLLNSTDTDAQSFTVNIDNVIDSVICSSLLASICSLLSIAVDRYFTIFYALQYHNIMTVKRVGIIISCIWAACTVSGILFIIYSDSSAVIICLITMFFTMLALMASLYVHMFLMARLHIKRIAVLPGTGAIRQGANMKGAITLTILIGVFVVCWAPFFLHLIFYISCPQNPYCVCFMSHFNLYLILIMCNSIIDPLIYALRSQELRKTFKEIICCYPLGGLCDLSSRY
T2 sequence (P41968 whole entry): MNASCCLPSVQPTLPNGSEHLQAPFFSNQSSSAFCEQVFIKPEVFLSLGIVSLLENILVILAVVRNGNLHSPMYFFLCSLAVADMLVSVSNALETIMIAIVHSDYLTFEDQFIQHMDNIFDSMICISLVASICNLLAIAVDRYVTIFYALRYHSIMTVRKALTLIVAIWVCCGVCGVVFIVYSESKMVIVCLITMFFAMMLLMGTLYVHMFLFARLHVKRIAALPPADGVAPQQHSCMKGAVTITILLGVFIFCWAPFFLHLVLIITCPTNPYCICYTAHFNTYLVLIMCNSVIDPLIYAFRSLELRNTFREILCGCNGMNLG
T1 sequence (Q01727 whole entry): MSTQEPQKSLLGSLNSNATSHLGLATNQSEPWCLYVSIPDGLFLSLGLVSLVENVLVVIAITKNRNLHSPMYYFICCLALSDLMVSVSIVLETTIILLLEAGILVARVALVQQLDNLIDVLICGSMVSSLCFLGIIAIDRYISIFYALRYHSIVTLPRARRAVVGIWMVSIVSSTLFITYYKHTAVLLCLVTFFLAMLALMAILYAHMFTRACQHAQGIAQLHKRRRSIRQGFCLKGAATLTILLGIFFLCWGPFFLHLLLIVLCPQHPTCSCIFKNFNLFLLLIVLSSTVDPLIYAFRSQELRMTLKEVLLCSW
T5 sequence (Q01726 whole entry): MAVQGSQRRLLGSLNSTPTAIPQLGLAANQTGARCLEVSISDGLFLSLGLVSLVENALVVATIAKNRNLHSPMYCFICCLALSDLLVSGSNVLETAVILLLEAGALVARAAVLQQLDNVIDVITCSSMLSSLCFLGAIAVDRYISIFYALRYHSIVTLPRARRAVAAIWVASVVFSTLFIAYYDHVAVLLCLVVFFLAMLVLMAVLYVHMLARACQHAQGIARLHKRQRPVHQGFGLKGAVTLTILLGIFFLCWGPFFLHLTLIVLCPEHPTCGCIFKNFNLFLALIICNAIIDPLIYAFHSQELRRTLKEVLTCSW

| Molecule | inhibition at 1 µM [1] [%] | functional status at MC1-R in cAMP assay [2] | inhibition at 1 µM [4] [%] | inhibition at 1 µM [5] [%] | functional status at MC4-R in cAMP assay [6, 18] | functional status at MC5-R in cAMP assay [7] | Kb [8] [µM] | inhibition at 1 µM [9] [%] | Efficacy/Intrinsic Activity [10] | Efficacy/Intrinsic Activity [11] | Penile Erection ICV [17] | Penile Erection IV [17] | further results |
| --- | --- | --- | --- | --- | --- | --- | --- | --- | --- | --- | --- | --- | --- |
| CC(C)C[C@@H]1CN(C(=O)[C@H](N)Cc2ccc(Cl)cc2Cl)[C@@H](CCCNC(=N)N)CN1CCc1ccc2ccccc2c1 [Example 4, N-{3-[1-[2(R)-Amino-3-(2,4-dichloro-phenyl)-propionyl]-5(R)-isobutyl-4-(2-naphthalen-2-yl-ethyl)-piperazin-2(S)-yl]-propyl}-guanidine] | 21 | no intrinsic activity (intrinsic activity below 0.1 (10%) is classified as inactive or having no intrinsic activity) | 64 | 75 | no intrinsic activity (intrinsic activity below 0.1 (10%) is classified as inactive or having no intrinsic activity) | partial agonist (intrinsic activity between 0.1 (10%) and 0.7 (70%) is classified as a partial agonist) | 0.02 | 99 | None | None |  |  | Ki ([1]; read-out: Ki (nM) (NDP-α-MSH) In Normal System, MC1-R): 1360 nM; inhibition in vivo at 10 mg/kg ([3]; 10 mg/kg, read-out: maximal decrease in food intake): 60% |
| C[C@@H]1CN(C(=O)[C@H](N)Cc2ccc(Cl)cc2Cl)[C@@H](CCCNC(=N)N)CN1CCc1ccc2ccccc2c1 [Example 11, N-{3-[1-[2(R)-Amino-3-(2,4-dichloro-phenyl)-propionyl]-5(R)-methyl-4-(2-naphthalen-2-yl-ethyl)-piperazin-2(S)-yl]-propyl}-guanidine] | 20 | inactive | 72 | 65 | antagonist | inactive | 0.0158 | 99 | None | 0.49 |  |  | maximal decrease in food intake ([12]; IP): 19%; maximal decrease in food intake ([12]; IV): 87%; maximal decrease in food intake ([3]; 3 mg/kg): 10%; maximal decrease in food intake ([3]; 10 mg/kg): 30%; functional status at MC3-R in cAMP assay [13]: inactive; EC50 [11]: 0.061 µM |
| CCCC[C@H](NC(C)=O)C(=O)N[C@H]1CC(=O)NCCCC[C@@H](C(=O)O)NC(=O)[C@H](Cc2ccc3ccccc3c2)NC(=O)[C@H](CCCNC(=N)N)NC(=O)[C@@H](Cc2ccc3ccccc3c2)NC(=O)[C@H](Cc2c[nH]cn2)NC1=O [Example 34, Ac-Nle-cyclo(Asp-His-D-Nal 2-Arg-Nal 2-Lys)-OH] (Ac-[Nle]DH[d2Nal]R[2Nal]K-OH; lactam 2-7) | 102 |  | 98 | 100 |  |  | 0.00794 | 100 | None | None |  |  | Ki [14]: 0.25 nM; Penile Erection ICV [15]: No; PE efficacy ([15]; 3 nanomole): inactive; 24 hour increase in food intake [16]: 12 g; increase in body weight ([16]; 24 hours): 16 g; functional status at MC4-R in cAMP assay ([6]; at 1 nM dose): inactive |
| AGRP (83-132): AgRP (83-132); functional antagonist known not to cause PE response (SSRRCVRLHESCLGQQVPCCDPCATCYCRFFNAFCYCRKLGTAMNPCSRT; ends and bridges not checked; cysteine pairing not given here) [reference compound] |  |  |  |  |  |  |  |  | None | None | No | No |  |
| cyclo 2,7[Ac-Nle-Asp-His-D-Nal 2-Arg-Trp-Lys]-NH2 [SHU-9119] |  |  |  |  |  |  |  |  |  |  | No | No |  |
